Assay results reported in paper PMC12040169 (PLOS Biology, 2025).

Test: in vitro
Conditions: human, hela cells
[1] = % viability, bulk resorufin, single well

| SMILES | viability at 28.5 h, 10 µM (% viability) | also measured |
| --- | --- | --- |
| O=C(N/N=C\c1ccccc1O)c1nc([N+](=O)[O-])n[nH]1 [CBK261475] | 99.8% |  |
| CC1(C)Cc2nc3[nH]nc(N)c3cc2CO1 [CBK261476] | 93.9% |  |
| CCC(=O)Nc1nc2ccccc2n1CCN1CCOCC1 [CBK261477] | 101% |  |
| Cc1n[nH]c(NNC(=O)COc2ccc(Cl)cc2)c1[N+](=O)[O-] [CBK261478] | 98.2% |  |
| O=C(O)c1ccc(/C=N/NC(=O)C2COc3ccccc3O2)cc1 (centres unmarked) [CBK261481] | 100% |  |
| Cc1[nH]c2ccccc2c1/C=N/NC(=O)C1COc2ccccc2O1 (centres unmarked) [CBK261482] | 90.9% |  |
| O=[N+]([O-])c1ccc2c(/C=N/c3ccc(-c4nc5ccccc5s4)cc3)c(O)ccc2c1 [CBK261483] | 92.3% |  |
| O=C(N/N=C/C1C=Nc2ccccc21)c1cc([N+](=O)[O-])cc([N+](=O)[O-])c1 (centres unmarked) [CBK261485] | 89.8% |  |
| O=[N+]([O-])c1ccc(/C=N/Nc2nnc3c(n2)[nH]c2ccccc23)cc1 [CBK261486] | 97.8% |  |
| O=C1C=C(c2ccc([N+](=O)[O-])cc2)Nc2nonc2N1 [CBK261487] | 89.4% |  |
| Oc1ccc(SCCCCCN2CCCCC2)cc1 [CBK261488] | 92.3% |  |
| Nc1ccc(S(=O)(=O)c2ccc(-n3c(=O)c4cc5c(=O)n(-c6ccc(S(=O)(=O)c7ccc(N)cc7)cc6)c(=O)c5cc4c3=O)cc2)cc1 [CBK261490] | 92% |  |
| COc1ccccc1NS(=O)(=O)c1cc(S(=O)(=O)Nc2ccccc2OC)c(C)cc1C [CBK261493] | 92% |  |
| CN1CCN(CCC(=O)N/N=C/c2cccc(Br)c2)CC1 [CBK261496] | 96.6% |  |
| CN1CCN(CCC(=O)N/N=C/c2ccccc2O)CC1 [CBK261497] | 93.1% |  |
| COc1cc(/C=N/NC(=O)CCN2CCN(C)CC2)cc(OC)c1O [CBK261500] | 100% |  |
| COc1cc(/C=N\NC(=O)CN2CCN(C)CC2)cc2c1OCO2 [CBK261503] | 109% |  |
| COc1cc(/C=N/NC(=O)CCN2CCN(C)CC2)cc2c1OCO2 [CBK261504] | 116% |  |
| COc1ccccc1CC(CC(=O)O)C(=O)O (centres unmarked) [CBK261508] | 91.6% |  |
| O=C(CC(C(=O)O)C1CCCO1)Nc1ccc(Cl)cc1Cl (centres unmarked) [CBK261509] | 86.2% |  |
| NS(=O)(=O)c1ccc(N2N=C(c3ccccc3)CC2c2ccccc2)cc1 (centres unmarked) [CBK261511] | 95.9% |  |
| CC1(C)NC(C)(C)C(=N\O)/C(=N\O)C/1=N\O [CBK261512] | 110% |  |
| CC1=[N+]([O-])C2(N)CCc3nonc3C2(O)C1 (centres unmarked) [CBK261513] | 87.9% |  |

| SMILES | viability at 28.5 h, 10 µM (% viability) | also measured |
| --- | --- | --- |
| CC1(N2CCOCC2)CC2(O)C(=[N+]1[O-])CCc1c2no[n+]1[O-] (centres unmarked) [CBK261516] | 90.5% |  |
| CN(/N=C\c1ccc([N+](=O)[O-])cc1)c1nc(-c2ccccc2)cc(-c2ccccc2)n1 [CBK261517] | 88.9% |  |
| O=[N+]([O-])c1ccccc1CN1CCN(C/C=C/c2ccccc2)CC1 [CBK261518] | 87.1% |  |
| CN1CCN(c2c(C(=O)O)cc([N+](=O)[O-])cc2[N+](=O)[O-])CC1 [CBK261519] | 100% |  |
| CC(C)(C)c1cc(CN2CCN(c3ccccn3)CC2)cc(C(C)(C)C)c1O [CBK261520] | 117% |  |
| O=C(CN1CCCCC1)NN(Cc1ccccc1)c1ccccc1 [CBK261521G] | 103% |  |
| COc1ccc(CN2CCC(O)CC2)c(OC)c1 [CBK261522] | 95.9% |  |
| c1ccc(Oc2cccc(CN3CCN(c4ccccn4)CC3)c2)cc1 [CBK261523] | 102% |  |
| O=Cc1c(-[n+]2ccc(-c3ccncc3)cc2)nc([O-])n1-c1ccccc1 [CBK261529] | 108% |  |
| CN1CCCN(Cc2cccc3ccccc23)CC1 [CBK261531] | 96.4% |  |
| O=C(O)CCCC(=O)Nc1ccc(C(=O)O)cc1 [CBK261534] | 86.5% |  |
| COc1cc(CN2CCN(c3ccccn3)CC2)ccc1O [CBK261537] | 118% |  |
| O=C(O)c1cccc(NC(=O)C2CCCCC2C(=O)O)c1 (centres unmarked) [CBK261538] | 96.6% |  |
| COc1cc(CN2CCCN(C)CC2)c([N+](=O)[O-])cc1OC [CBK261539] | 90.2% |  |
| CCN1CCN(Cc2c[nH]c3ccccc23)CC1 [CBK261540] | 99.4% |  |
| Cc1cccc(NC(=S)NNC(=O)CCC(=O)O)c1 [CBK261542] | 85.1% |  |
| CC(=O)Nc1ccc(S(=O)(=O)N2CCN(C/C=C/c3ccccc3)CC2)cc1 [CBK261545] | 114% |  |
| O=C(O)CCC(=O)NNc1ccccc1[N+](=O)[O-] [CBK261546] | 95.7% |  |
| O=[N+]([O-])c1cc2c(cc1CN1CCN(Cc3ccccc3)CC1)OCO2 [CBK261548] | 94.7% |  |
| CN1CCN(C(=S)SCC(=O)O)CC1 [CBK261549C] | 92.8% |  |
| COc1cc(CN2CCN(C/C=C/c3ccccc3)CC2)c([N+](=O)[O-])cc1OC [CBK261550] | 86.4% |  |
| O=C(Nc1ccccc1C(=O)Nc1ccccc1C(=O)O)c1ccccc1 [CBK261551] | 91.1% |  |
| Cc1ccnc(NS(=O)(=O)c2ccc(NS(C)(=O)=O)cc2)n1 [CBK261552] | 100% |  |

| SMILES | viability at 28.5 h, 10 µM (% viability) | also measured |
| --- | --- | --- |
| COc1ccc(OC)c(CN2CCCN(C)CC2)c1 [CBK261554] | 96.1% |  |
| O=[N+]([O-])c1ccc(Cl)cc1CN1CCN(c2ccccc2)CC1 [CBK261556] |  | viability at 28.5 h, 10 µM [1]: 89.3% |
| CN1CCCN(Cc2ccc([N+](=O)[O-])s2)CC1 [CBK261558] | 94% |  |
| Cc1cc(C)c(NC(=O)C2CCCCN2C23CC4CC(CC(C4)C2)C3)c(C)c1 (centres unmarked) [CBK261559C] | 92.6% |  |
| CCOC(=O)C1CCCCN1Cc1ccc(OC)c(O)c1 (centres unmarked) [CBK261560] | 98.3% |  |
| CCN1CCN(Cc2ccccc2[N+](=O)[O-])CC1 [CBK261561] | 109% |  |
| Nc1ccc(-c2cc(N)n(-c3ccc(Oc4ccccc4)c(S(=O)(=O)O)c3)n2)cc1 [CBK261563] | 96.1% |  |
| CN1CCC(N(C)Cc2ccc3c(c2)OCO3)CC1 [CBK261564] | 86.8% |  |
| CN1CCC(N(C)Cc2ccccc2[N+](=O)[O-])CC1 [CBK261565] | 93.8% |  |
| O=C(O)C1CCCCC1C(=O)Nc1cccc2ccccc12 (centres unmarked) [CBK261569] | 101% |  |
| COc1ccc(N2CCN(Cc3cc([N+](=O)[O-])ccc3Cl)CC2)cc1 [CBK261571] | 88.9% |  |
| CCOc1cc(CN2CCN(C/C=C/c3ccccc3)CC2)ccc1OC [CBK261573] | 87.2% |  |
| COc1cc(CN2CCN(Cc3ccccc3)CC2)cc([N+](=O)[O-])c1O [CBK261574] | 99% |  |
| C/C(=N\NC(N)=S)C(=O)O [CBK261575] | 102% |  |
| CN1CCC(N(C)Cc2coc3ccccc3c2=O)CC1 [CBK261578] | 103% |  |
| CCN(CC)C(=O)C1CCCN(Cc2cccc(Oc3ccccc3)c2)C1 (centres unmarked) [CBK261581] | 92.6% |  |
| COc1cc(C2C(C#N)=C(N)OC3=C2C(=O)CC(c2ccccc2)C3)cc(Br)c1O (centres unmarked) [CBK261587] | 87.1% |  |
| O=C(CN1CCCCCC1)N/N=C/c1ccccc1Cl [CBK261589] | 89.4% |  |
| NC(=S)NNC(=O)Nc1ccccc1 [CBK261595] | 96.6% |  |
| CC(=O)Nc1cccc(NC(=O)CCCC(=O)O)c1 [CBK261598] | 97.9% |  |
| c1ccc(CCNC2CCCc3c2[nH]c2ccc(C4CCCCC4)cc32)cc1 (centres unmarked) [CBK261602C] | 90.7% |  |
| O=P(O)(CNCc1ccccc1)CNCc1ccccc1 [CBK261604C] | 118% |  |
| COC(=O)CCC(=O)NNC(=O)c1cccc(Br)c1 [CBK261606] | 107% |  |

| SMILES | viability at 28.5 h, 10 µM (% viability) | also measured |
| --- | --- | --- |
| O=C(COC(=O)c1ccc2c(c1)C(=O)N(c1ccc(Oc3ccccc3)cc1)C2=O)c1ccc(Br)cc1 [CBK261607] | 105% |  |
| O=C(CNC(=O)c1ccccc1)OCC(=O)c1ccc(Cl)c(Cl)c1 [CBK261611] | 93.9% |  |
| COc1ccc(/C(C)=N\NC(=O)c2cccc(Br)c2)cc1 [CBK261612] | 100% |  |
| Cc1cc(-c2ccc(/N=C/c3cccc(O)c3O)c(C)c2)ccc1/N=C/c1cccc(O)c1O [CBK261613] | 82.6% |  |
| NS(=O)(=O)c1ccc(NC(=O)/C=C/c2cccc([N+](=O)[O-])c2)cc1 [CBK261616] | 99.5% |  |
| COc1ccccc1N1C(=O)NC(=O)/C(=C/NCCCO)C1=O [CBK261618] |  | viability at 28.5 h, 10 µM [1]: 87.8% |
| Oc1ccc2ccccc2c1/C=N/c1ccc(-c2cc(-c3ccc(/N=C/c4c(O)ccc5ccccc45)cc3)ncn2)cc1 [CBK261621] | 104% |  |
| COc1ccc2cc(/C=C(\C#N)c3nc(-c4cc5ccccc5oc4=O)cs3)c(Cl)nc2c1 [CBK261623] | 93.9% |  |
| CCN(CC)CCN/C=C1/C(=O)NC(=O)N(Cc2ccccc2)C1=O [CBK261624] |  | viability at 28.5 h, 10 µM [1]: 88.9% |
| O=C(N/N=C/c1ccc(O)cc1)C(=O)N/N=C/c1ccc(O)cc1 [CBK261625] | 88.7% |  |
| Oc1ccc(Cl)cc1/C=N/c1ccc(-c2cc(-c3ccc(/N=C/c4cc(Cl)ccc4O)cc3)ncn2)cc1 [CBK261626] | 101% |  |
| CC1(C)C/C(=N/O)c2cc3c(nc2C1)CC(C)(C)C/C3=N\O [CBK261629] | 106% |  |
| CCOC(=O)c1ccccc1NC(=O)CCC(=O)O [CBK261631] | 93.5% |  |
| C/C(=N\Nc1nc(C(=O)O)cs1)c1ccccc1 [CBK261633] | 88.7% |  |
| COc1ccc2cc(/C=C(\C#N)c3nc(-c4cc5c(ccc6ccccc65)oc4=O)cs3)c(Cl)nc2c1 [CBK261636] | 94% |  |
| O=C(O)CCC(=O)Nc1ccc(-c2ccc([N+](=O)[O-])cc2)cc1 [CBK261637] | 105% |  |
| O=C(/C=C/c1ccc(N2N=N2)cc1)/C=C/c1ccc(N2N=N2)cc1 [CBK261638] |  | viability at 28.5 h, 10 µM: 105% |
| Oc1ccc(/C=N/N=C/c2ccc(O)c(O)c2)cc1O [CBK261641] | 95% |  |
| CCOC(=O)c1c(NC(=O)CN2CCCCC2)sc2c1CCCC2O (centres unmarked) [CBK261644] | 90.5% |  |
| CCN(CC)CC(=O)Nc1sc2c(c1C#N)CCCC2 [CBK261646] | 102% |  |
